The target of series [1] is T1, SOCS2 C111S mutant (SBC2 C111S) (Homo sapiens, UniProt O14508, C111S).
T1 construct: SOCS2 (amino acids 32–198); His6 (N, cleaved yes); made in house; host or cells: E. coli BL21(DE3)
The series can be described thus: Intact ESI-MS of recombinant protein, covalent modification. The format is biochemical. Conditions: for % modified: SOCS2 C111S + MN551 (1:1, 50 µM). Here is the method: […] At defined time points 20 µl samples were removed and the protein precipitated by the addition of 80 µl methanol. The precipitated protein was pelleted by centrifugation, washed with 500 µl methanol, and resuspended in an aqueous solution of 15% acetonitrile and 1% TFA. Samples were separated by HPLC on a C3 column using a 10–75% gradient of acetonitrile and analyzed using an Agilent 6130 quadrupole MS. Spectra were deconvoluted and integrated using Agilent LC/MSD ChemStation.

The next series addresses T2, SOCS2 (Homo sapiens, UniProt O14508).
T2 construct: endogenous SOCS2 from K562 lysates; endogenous in cells; host or cells: K562
T2 sequence (O14508 1-198): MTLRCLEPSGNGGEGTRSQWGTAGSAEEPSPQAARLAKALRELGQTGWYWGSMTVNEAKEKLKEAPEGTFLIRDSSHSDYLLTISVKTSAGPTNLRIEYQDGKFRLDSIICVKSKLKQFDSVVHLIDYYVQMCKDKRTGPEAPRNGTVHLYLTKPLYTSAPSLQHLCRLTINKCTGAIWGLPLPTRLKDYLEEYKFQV
Description: SOCS2 pulldown with biotinylated GHR_pY595 peptide from K562 cell lysates preincubated with compound. In kind it is biochemical. The protocol: Pulldown of cellular SOCS2 was abrogated when K562 cells were pre-treated for 6 h with MN714 prior to cell lysis, further evidencing the inhibitor cell permeability and specific target engagement (Fig. 6c).
K562 cells were treated with either DMSO or 10 µM MN714 for 6 h before being lysed. For experiments with MN551, DMSO-treated lysate was used. DMSO-treated K562 lysate (1 mg/ml) was pre-cleared using control agarose beads (Pierce Control Agarose Resin, 26150) which were washed thrice using 50 mM Tris pH 7.4, 150 mM NaCl buffer. […] Unbound peptide was washed off through 3× cycles of buffer wash and spin. Beads were resuspended to a total volume of 100 µl per IP sample. 100 µl beads with immobilized peptides was added to the MN551 lysate tubes. Samples were incubated for 40 min at room temperature. Samples were spun and unbound supernatant was removed. Beads were washed 3× with 0.05% NP40, 50 mM Tris pH 7.4, 150 mM NaCl buffer before being resuspended in 35 µl 1× LDS. Samples were heated for 10 min at 95 °C after which the elute was transferred to a fresh tube. 20 µl of each sample was analyzed by Western Blot (4-12% Bis-Tris gel 180 V, 60 mins) before blotting for SOCS2 (ab109245, 1:1000 dilution) overnight at 4 °C. Uncropped blot images collected with ChemiDoc Touch imaging system (BioRad) operated by Image Lab (v2.4.0.03) and antibody validation provided in Source Data. […]

In a further series the test system is K562 cells. Description: cells. The format is cell-based. The protocol: Supplementary Figure 10: GSH kinetic study of compound MN551 in GSH stability assay. A and B.
A plot of unmodified MN551 v/s time. The starting concentrations of MN551 were 1 and 10 µM in A and B respectively. C. Reactivity of MN551 measured against Afatinib and Ibrutinib
Supplementary Figure 11: Cell viability assay to assess cytotoxicity of MN714. (EC50 reported as mean±SEM, technical replicates=3).
(1 picture or pasted object on this page, not shown here)

Entries after “also recorded” stand apart in the source; their conditions may differ. Where two headings read alike, the source gives them in different places.

T1 sequence (Q15370 1-104): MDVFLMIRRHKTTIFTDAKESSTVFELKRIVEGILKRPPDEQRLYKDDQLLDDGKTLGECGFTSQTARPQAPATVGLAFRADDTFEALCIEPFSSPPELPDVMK
T1 sequence (Q15369 17-112, further chain): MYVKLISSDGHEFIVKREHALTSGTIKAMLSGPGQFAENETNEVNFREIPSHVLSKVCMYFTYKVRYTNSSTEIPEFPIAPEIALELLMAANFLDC
T1 sequence (O14508 32-198 C111S): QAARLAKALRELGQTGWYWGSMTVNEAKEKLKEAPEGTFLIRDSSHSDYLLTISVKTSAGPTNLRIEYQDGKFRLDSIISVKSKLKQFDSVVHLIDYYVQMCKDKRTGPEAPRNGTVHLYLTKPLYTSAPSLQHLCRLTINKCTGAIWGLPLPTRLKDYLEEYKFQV

Consider `O=C(CCl)Nc1cccc(CNC(=O)[C@H](Cc2ccc(OP(=O)(O)O)cc2)NC(=O)Cc2ccc(F)cc2)c1` [MN551], for which the “covalent reactivity with C111S mutant” value in series [1] is “no reactivity; also recorded: does not covalently react”. Also, the “% modified” value in series [1] (t = 0 min), in series [1] (t = 5 min), in series [1] (t = 10 min), in series [1] (t = 20 min), in series [1] (t = 40 min) and in series [1] (t = 60 min) was 0.0% throughout. Also, the “% modified” value in series [1] (t = 90 min) and in series [1] (t = 120 min) was 0.0% each time. Further, the IC50 at SOCS2 (K562 cell lysates, mean ± SEM, technical replicates = 2, read-out: IC50 of reduction of SOCS2 pulled down with biotinylated GHR pY595) is 5.9 ± 2.6 µM; on SOCS2 (K562 lysates, version shown in the peer review file, read-out: apparent IC50 of blockade of SOCS2 pull-down), 9 µM.
In the case of `CC(C)(C)C(=O)OCOP(=O)(OCOC(=O)C(C)(C)C)Oc1ccc(C[C@H](NC(=O)Cc2ccc(F)cc2)C(=O)NCc2cccc(NC(=O)CCl)c2)cc1` [MN714], the EC50 with K562 cells (Homo sapiens, K562 24hrs, read-out: cell viability EC50) is 11.8 µM. Besides, in the series on K562 cells (K562 cells), the “concentration up to which no significant cytotoxicity was observed” value was in the range of 3000 to 10000 nM.

A word on the IC50: it is the concentration that inhibits the measured activity by half. For orientation: EC50 means the concentration needed to bring the measured effect to its halfway point.

The values are drawn from paper PMC10564737, “Structure-based design of a phosphotyrosine-masked covalent ligand targeting the E3 ligase SOCS2” (Nature Communications, 2023).
